The structures appear in SMILES notation.

Common to all, as to type: physicochemical
A short description of data set [1]: Mass loss of PCDS diffuser with isopropyl myristate as solvent. Particulars: 2% F3 in isopropyl myristate, 170 grams, over 14 days. The method, then: The first step in solvent validation consists in preparing a device comprising a glass bottle containing a 2% solution of a known pheromone (feline facial pheromone F3) in isopropyl myristate (also termed Myristic acid isopropyl ester, IUPAC name Propan-2-yl tetradecanoate). The initial weight of solution placed in the bottle is 170 grams. Monitoring is carried out over 14 days, with weighing at DO, D7 and D14.

Data set [2] in a line: Ratios of molecules diffused through the sticks over time. The method, then:
Furthermore, as small molecules diffuse more, it happens that they lose intensity over the course of the study, so the ratios are different 24 hours after immersing the sticks in the liquid and 21 days later. Here are the ratios for each pheromone studied at the start of the study and at the end.

The nature of data set [3]: DAP PCDS direct diffusion (SPME-GC/MS). Particulars: DAP/PCDS diffuser, 40 mL, 6 capillaries. As to the method: Three diffusers, each containing 40 mL of solution and 6 capillaries, were prepared and diffused. The first points were measured at T=1d, T=2, and T=3d, then every Monday, Wednesday and Friday of each study week until the diffusers no longer contained any solution. To measure the pheromone released into the air at each study time, the diffuser is first weighed (with the sticks) to measure mass loss, then placed in an enclosed area (in this case, an upside-down aquarium) containing a SPME fiber, as shown in FIG. 24.
The fiber is left to diffuse above the diffuser for 2 hours (a time determined in a previous method development as the optimum time for molecules to adsorb to the phase), then analyzed using the gas chromatography/mass spectrometry (GC/MS) technique.
Three diffusers were studied for greater accuracy. The chromatograms obtained are reprocessed using GC/MS Solution software.
For each chromatographic peak, the area is recorded using GC/MS Solution software, then entered into an Excel spreadsheet. Diffusion curves giving the area of the chromatographic peak corresponding to each active ingredient as a function of time are then plotted.
Analyses were carried out by gas chromatography/mass spectrometry (GC/MS). The instrument was a Shimadzu GCMS QP2010SE® equipped with an AOC 6000® autosampler. Separation was carried out on a ZB-FFAP® column (30 m×0.25 mm×0.25 μm, stationary phase: nitroterephthalic acid-modified polyethylene glycol) supplied by Phenomenex. The furnace temperature was initially set at 80° C. for 1 minute, then increased at 10° C./min to 240° C. and maintained at this temperature for 2 minutes. The carrier gas was helium at a flow rate of 1 mL/min. Analysis time is 19 minutes.
The injector is a split/splitless injector used in split mode (temperature: 250° C., split: 50:1). The SPME fiber was injected directly into the injector and left to desorb for 15 minutes.
The separated molecules were detected using a mass spectrometer equipped with an electron impact source (temperature: 200° C.). The analyzer is a simple quadrupole. The interface temperature is 250° C. Data were acquired in FASST mode (Fast automated SCAN/SIM type), i.e. part of the analysis was performed by scanning all ions (SCAN) and part by selecting specific ions (SIM). Target molecules were thus analyzed using ion selection.

The nature of data set [4]: F3P PCDS indirect diffusion, pheromone remaining in solution (GC/FID). The method, then: For this study, three diffusers each containing 40 mL of product and 6 capillaries were prepared and diffused. Once a week, on Wednesdays, the amount of pheromone remaining in the solution was monitored by gas chromatography analysis coupled to a flame ionization detector (GC/FID) until no liquid remained. The percentage of pheromone was measured weekly.
Next, the percentage of pheromone was checked by external calibration using a GC/FID calibration range.
Analyses were carried out by gas chromatography coupled to a flame ionization detector. The instrument was a Shimadzu GC 2025® with an AOC20i® autosampler. Separation was performed on an Agilent DB-FFAP® column (30 m×0.25 mm×0.25 μm, stationary phase: nitroterephthalic acid-modified polyethylene glycol). The temperature of the gas chromatography oven was initially maintained at 140° C. for 2 minutes, then increased at 10° C./min to 250° C. and left at this temperature for 3 minutes. The carrier gas was helium at 1 mL/min. Analyses were performed in split mode using a split/splitless injector (temperature: 250° C., split: 1:50).
The detector used was a flame ionization detector. The detector temperature was 250° C. with an air flow rate of 400 mL/min, hydrogen 40 mL/min and nitrogen 30 mL/min.
For this purpose, a calibration range was prepared for each analysis. […]

Data set [5] is described as follows: DAP quantification at the top of the capillaries (GC/FID). Particulars: top of the rods. The method, then:
For this study, three diffusers containing 40 mL of solution and 6 capillaries were used for diffusion. Each week, a diffuser was weighed and the pheromone contained in the liquid solution and on the top of the capillaries was quantified by gas chromatography with flame ionization detector (GC/FID). To quantify the pheromone at the top of the capillaries, approximately 1 cm of the top of the capillaries is cut off with scissors and 0.1 g of the capillary tops is placed in a 25 mL volumetric flask. Acetone is then added up to the beginning of the neck, and the flask is placed in an ultrasonic bath for one hour. Acetone is then topped up to volume, and an aliquot of solution is taken and filtered through a syringe filter for GC/FID analysis. DAP is then quantified by external calibration. For this, five solutions with concentrations ranging from 50% to 150% of the target value (100% being the target value) are prepared to cover a wide concentration range (protocol for preparing the standard range not shown but available). Analyses were carried out using gas chromatography with a flame ionization detector. The instrument was a Shimadzu GC 2025AF® equipped with an AOC20i® autosampler. Separation was carried out on a DB-WAX UI® column (20 m×0.18 mm×0.30 μm, polyethylene glycol (PEG) stationary phase) supplied by Agilent. The oven temperature was initially set at 90° C. and held for 2 minutes, then increased at 20° C./min to 160° C. and held at this temperature for 5 minutes. Finally, the temperature was increased at 20° C./min to 220° C. and held at this temperature for 5 minutes. The carrier gas is helium at a flow rate of 1 mL/min. Analysis time was thus 18.5 minutes. The injector is a split/splitless injector used in split mode (temperature: 230° C., split: 50:1, injected quantity: 1 μL). The detector is a flame ionization detector (FID). Its temperature is 240° C., the hydrogen flow rate is 40 mL/min and the air flow rate is 400 mL/min. A cleaning gas, dinitrogen, is also present at a flow rate of 30 mL/min.

Data set [6] in a line: Pheromone migrated to the stick tips (GC/FID). The conditions noted are these: on stick tips, despecified pheromone. As to the method:
In the course of this study, we also measured the amount of pheromone migrating on the sticks, to check that the pheromone had migrated to the top of the sticks, helping it to diffuse into the air. To do this, the test is the same as for the diffuser blocks: 2.5 g of stick tips are cut off and placed in a 50 mL flask, which is then placed in an ultrasonic bath for one hour. The resulting solution is filtered (to avoid injecting particles into the instrument) and placed in a chromatographic vial for analysis.

Data set [7] in a line: Direct diffusion of diffuser blocks (SPME GC/MS). Particulars: despecified pheromone 2%, 4 weeks. As to the method:
Analyses were carried out using gas chromatography (GC) coupled to a mass spectrometer (MS) detector, a technique commonly referred to as GCMS. The molecules of interest were extracted using the Solid Phase Micro-Extraction (SPME) technique. The instrument used was the following: QP2010SE® from Shimadzu (See FIG. 4).
AOC 6000® automatic feeder • Extraction/SPME fiber: polyacrylate/Fused silica (85 μm), 23 Ga. • Adsorption time: 2 hours (exposure time of fiber above block) (See FIG. 4) • Desorption time: 30 minutes (fiber exposure time in injector) • Fiber-block distance: 2 cm • Injection: split/splitless injector • Temperature: 250° C., split 50 mode. • Separation: ZB-FFAP® column (Phénomenex), length: 30 m, diameter: 250 μm, film thickness: […]
• Carrier gas: Helium (He) • Analysis time: 18 min (not including time to return to equilibrium between each analysis injection • Detection: mass spectrometer with electron impact source/analyzer: quadrupole. • Source temperature: 200° C. • Interface temperature: 250° C. • Scan m/z 50 to m/z 500 • SIM with ions 55, 66 and 74.
Analyses were carried out in triplicate to verify reproducibility of results.
With the SPME method, results are evaluated by measuring the chromatographic peak area. The data have been plotted on diffusion curve (see FIGS. 5 and 6).

The nature of data set [8]: Direct diffusion of rod diffuser (SPME GC/MS). The conditions noted are these: despecified pheromone 2%. As to the method: This is exactly the same analytical method used for the diffuser block study. The study setup is shown below, also with a two-hour adsorption time-See FIG. 12 showing the set-up. Because of the height of the passive diffusion device, the fiber mounting bracket will not be the same for the block and for the rod device. The distance between the fiber and the device is 10 cm. With the SPME method, results are evaluated by measuring the chromatographic peak area. The data have been plotted to produce a diffusion curve.

A short description of data set [9]: Indirect assay of rod diffuser solution (GC/FID). Particulars: stick diffuser solution, despecified pheromone. The method, then: Solution integrity was checked at each analysis time. Before each indirect assay, the vial was weighed to visualize mass loss over time. Each vial contained six sticks. • Specifications: the solution must lose mass over time. • Result: Compliant—See FIG. 9 This is the same analytical method as for the diffuser block study, only the sample preparation differs. 1.25 g of solution were weighed into a 25 mL volumetric flask and the volume made up to the mark with acetone. The resulting solution is transferred to a 1.5 mL GC vial for analysis. This is exactly the same calibration range as for the diffuser block study.

The nature of data set [10]: Indirect assay of diffuser blocks (GC/FID, pheromone remaining in the block). Particulars: despecified pheromone. The method, then: Analyses were carried out using the gas chromatography (GC) technique with a flame ionization detector (FID), commonly known as GC/FID. The instrument used was the Shimadzu GC2025.® • Injection: Quantity injected: 1 μL, split 50:1, temperature: 230° C. • Separation: DB-WAX column (Agilent), length: 20 m, diameter: 180 μm, film thickness: […] • Carrier gas: Helium (He) • Analysis time: 11.50 min (not including time to return to equilibrium between each analysis) injection). • Detection: FID, temperature: 250° C., flow rates: H2: 40 mL/min, Air: 400 mL/min, Nitrogen (make-up): 30 mL/min. To obtain a representative sample, “cores” were drilled at various positions in the block and then collected. 2.5 g of gel were weighed into a 50 mL volumetric flask and the volume made up to the beginning of the neck of the flask with acetone. The flask was then placed in an ultrasonic bath for one hour until the block was dissolved (a white precipitate was obtained), then acetone was added to the mark. An aliquot of this solution was placed in a syringe fitted with a syringe filter and filtered to obtain a translucent solution. The resulting solution was transferred to a 1.5 mL GC vial for analysis. The assays were carried out using a calibration range.

The mark [11] stands for this setting: DAP, 24 h after immersion of sticks.
Setting [12] is: DAP, 21 days after immersion of sticks (empty tank).
Where [13] appears, read: F3P, 24 h after immersion of the sticks.
[14] abbreviates: F3P, 21 days after immersion of sticks (empty tank).

Take `CCCCCCCCCCCCCC(=O)OC(C)C` [isopropyl myristate, Propan-2-yl tetradecanoate]: the “mass loss of the PCDS diffuser” value in [1] is on record as “virtually non-existent”.

With `CCCCCCCCCCCC(=O)OC` [methyl laurate, methyl dodecanoate], the “ratio of molecules diffused through the sticks” value in data set [2] (setting [11]) is given as 51 % (w/w); in [2] (setting [12]), 37 % (w/w); in data set [2] (setting [13]), 20 % (w/w); in [2] (setting [14]), 17.5 % (w/w). The “direct diffusion over time” value in [3] was “decreases slightly over time”. In addition, the “quantities found in the solution” value in data set [4] is “very low”. For the same compound, the “Proportion of methyl laurate in the DAP pheromone” value in data set [5] (T = 6 j (instead of 2%)) was “laurate: 1.2%”; in data set [5] (T = 22 j (instead of 2%)) it was “laurate: 0.4%”; in data set [5] (T = 13 d (instead of 2%)), “laurate: 0.5%”.

On to `CCCCCCCCCCCCCC(=O)OC` [methyl myristate, methyl tetradecanoate], for which the “ratio of molecules diffused through the sticks” value is 27 % (w/w) in data set [2] (setting [11]); 33.5 % (w/w) in [2] (setting [12]); 76 % (w/w) in data set [2] (Despecified pheromone (Core), 5 days after immersion of the sticks); 70 % (w/w) in [2] (Despecified pheromone (Core), 21 days after immersion of sticks (empty tank)); 4 % (w/w) in [2] (setting [13]); 8.7 % (w/w) in data set [2] (setting [14]). The “% of the active ingredient in the pheromone” value in data set [6] (day 7) came out at 9.2%; in data set [6] (day 14), 8.2%; in [6] (day 21) it was 6.4%; in [9] (day 0), 11.9%; in data set [9] (day 7), 11.9%; in data set [9] (day 14), 11.9%. For the same compound, the “% of the active ingredient in the pheromone” value in [9] (day 21) worked out at 11.4%; in [10] (day 0) it was 12%; in data set [10] (day 7) it was 11.9%; in data set [10] (day 14), 11.9%; in [10] (day 21), 11.7%; in data set [10] (day 28), 11.7%. Besides, the “direct diffusion from the diffuser block” value in data set [7] is “diffuse better”. The “direct diffusion over time” value in data set [3] is “stable over time”. For the same compound, in data set [8], the “direct diffusion, rod system compared with diffuser block” value is on record as “better in the blocks than in the rod system”.
